# Measured values: patent US11987589B2, “Heterocyclic flavone derivatives, compositions, and methods related thereto” (Emory University, priority 2018, dated 2024)
# “Also recorded” adds a separate entry of the source. Read-outs that look alike come from different tables or passages of the source.
# Columns and labels:
# [1] = human, hepatocytes
# [2] = mouse, hepatocytes
# [3] = BBB-PAMPA Permeability; type: in vitro ADME
# [4] = biological target: T1, TrkB (Mus musculus, UniProt P15209); experiment: TrkB activation in brain of 5×FAD mice after chronic oral administration; type: in vivo
# T1 construct: from tissue; host or cells: brain (hippocampus) of 5xFAD mice
# T1 sequence (P15209 32-821): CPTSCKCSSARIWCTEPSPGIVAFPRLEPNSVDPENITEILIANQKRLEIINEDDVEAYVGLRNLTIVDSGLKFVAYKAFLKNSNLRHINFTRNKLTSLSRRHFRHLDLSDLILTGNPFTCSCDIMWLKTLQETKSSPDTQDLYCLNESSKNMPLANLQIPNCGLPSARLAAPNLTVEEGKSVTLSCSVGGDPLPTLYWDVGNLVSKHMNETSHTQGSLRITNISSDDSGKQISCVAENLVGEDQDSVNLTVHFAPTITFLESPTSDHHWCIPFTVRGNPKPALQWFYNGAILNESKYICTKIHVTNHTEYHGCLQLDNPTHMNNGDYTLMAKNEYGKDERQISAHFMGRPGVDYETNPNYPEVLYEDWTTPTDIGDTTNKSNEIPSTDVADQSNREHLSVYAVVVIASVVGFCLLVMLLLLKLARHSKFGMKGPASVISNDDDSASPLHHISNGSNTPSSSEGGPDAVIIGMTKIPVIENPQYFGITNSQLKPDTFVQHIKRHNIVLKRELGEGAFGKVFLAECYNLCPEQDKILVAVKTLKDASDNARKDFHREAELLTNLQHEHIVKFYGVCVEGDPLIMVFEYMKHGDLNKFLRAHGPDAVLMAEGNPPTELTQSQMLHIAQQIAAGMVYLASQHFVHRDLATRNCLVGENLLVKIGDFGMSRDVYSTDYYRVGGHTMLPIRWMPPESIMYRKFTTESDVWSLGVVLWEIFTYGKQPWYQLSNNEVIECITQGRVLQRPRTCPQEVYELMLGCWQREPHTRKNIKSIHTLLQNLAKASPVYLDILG
# Description: After 3 months of drug treatment, TrkB activation was monitored in the mouse brain by immunofluorescence with anti-phosphorylated TrkB (p-TrkB) antibody.
# [5] = tested on: Delta-secretase (AEP, asparagine endopeptidase); experiment: AEP activation and APP and Tau proteolytic cleavage in 5×FAD mice; type: in vivo, mouse
# Description: The processing of APP and Tau by AEP was evaluated by western blot.
# Delta-secretase (AEP, asparagine endopeptidase) cleaves both APP and Tau, mediating AD pathogenesis. […] To further investigate APP proteolytic cleavage activity by AEP, immunofluorescent co-staining was conducted on 5×FAD brain section with anti-APP C585 and AEP antibodies.
# [6] = tested on: 5×FAD mice; experiment: Synaptic loss and plasticity in 5×FAD mice (Golgi staining, electron microscopy, immunoblotting, LTP); type: in vivo, mouse
# Description: The dendritic spines from apical dendritic layer of the CA1 region were analyzed by Golgi staining. (Scale bar, […]). On top is quantitative analysis of the spine density.
# Synaptic loss is believed to be the basis of cognitive impairment in the early phase of Alzheimer's disease. […] The density of dendritic spines along individual dendrites of pyramidal neurons were assessed by Golgi staining. […] Since one dendritic spine can form more than one synapse, the densities of synapse in the CA1 area were quantified in 5×FAD mice brain by electron microscopy. […] Immunoblotting was done using pre-synaptic markers (synaptotagmin) and post-synaptic markers (GluR1, PSD95 and spinophilin).
# [7] = tested on: TrkB; experiment: Endogenous TrkB activation in DIV13 primary cortical cultures, immunoblotting; type: cell-based; conditions: 15 min
# Description: Endogenous TrkB activation in primary neurons were tested in DIV13 primary cortical cultures. The neurons were treated with the two compounds with doses for 15 min. The lysates were analyzed by immunoblotting with antibodies.
# [8] = tested on: 5×FAD mice; experiment: Morris water maze test in 5×FAD mice; type: in vivo, mouse
# Description: The hippocampus-dependent spatial memory of 5×FAD mice was tested by Morris water maze test. The average latency and swim path length for each of the 5 acquisition days were calculated and plotted. […] The memory recall for the platform location was assessed in the probe trail when the platform was removed, and the mice were allowed to search for 60 s.
# [9] = Plasma Stability (human); type: in vitro ADME
# [10] = Hepatocyte Stability (human); conditions: hepatocytes
# [11] = tested on: T48 cells; experiment: Protection from staurosporine (STS)-induced apoptosis, MTT assay, T48 cells; type: cell-based
# Description: Cytoprotective effects were tested. To examine whether these compounds protect cells from staurosporine (STS)-induced apoptosis, MTT assays were conducted using TrkB stable transfected cells or TrkB deficient SN56 cells.
# [12] = tested on: Aβ; experiment: Aβ deposition in 5×FAD mice (immunohistochemistry, thioflavin-S, ELISA); type: in vivo, mouse
# Description: The deposition of Aβ was tested by immunohistochemistry with anti-AP antibody.
# [13] = Microsomal Intrinsic Clearance (mouse); conditions: liver microsomes; for microsomal CLint: Mouse microsomes
# [14] = tested on: IL-6; experiment: Inflammatory factor IL-6 in 5×FAD mouse brains; type: in vivo
# [15] = in vivo; conditions: ICR, mouse, po, 5 mg/kg
# Description: The compounds were orally administered into wild-type mice or 3×Tg, an Alzheimer's disease (AD) mouse model. […] Pharmacokinetic analysis was performed using non-compartmental methods.
# [16] = In vitro plasma, hepatocyte and liver microsomal stability assays (summary statement); type: in vitro ADME
# [17] = Plasma Stability (mouse); type: in vitro ADME
# [18] = Hepatocyte Stability (mouse); conditions: hepatocytes
# [19] = Water solubility; type: physicochemical
# [20] = in vivo; conditions: mouse; for B/P Ratio, individual animal / Plasma concentration, Mean / Kp at 1 h / Kp at 2 h / Kp at 4 h: male; for Kp at 1 h / Kp at 2 h / Kp at 4 h: B/P Ratio
# Description: The concentration ratio of brain/plasma was calculated, and PK analysis was performed using a non-compartmental method.
# [21] = biological target: T2, TrkB (Rattus norvegicus, UniProt Q63604); experiment: TrkB activation in rat TrkB stably transfected SN56 cells (T48), immunoblotting; type: cell-based
# T2 construct: expressed in transfected cells
# T2 sequence (Q63604 32-821): as the sequence (P15209 32-821) above, with T3M, S9T, A10T, V32I, R63K, S84G, M153T, L185I, S394T, S770N counted along it
# [22] = Microsomal Intrinsic Clearance (human); conditions: liver microsomes; for microsomal CLint: Human microsomes
# [23] = NADPH-dependent CLint, with NADPH
# [24] = NADPH-dependent T1/2, Mouse microsomes, with NADPH
# [25] = NADPH-free T1/2, Mouse microsomes, NADPH-free
# [26] = ICR, iv, 2 mg/kg, individual animal
# [27] = NADPH-dependent T1/2, Human microsomes, with NADPH
# [28] = NADPH-free T1/2, Human microsomes, NADPH-free
compound,measurement,setting,value
O=c1ccc2ccc(O)cc2o1 [7-OH-Coumarin],Avg % Remaining at Last Point,[1],7.17%
same,Clearance,[1],88.5 μl/min/million cells
same,Half Life,[1],0.262 h
same,Avg % Remaining at Last Point,[2],38.8%
same,Clearance,[2],63.2 μl/min/million cells
same,Half Life,[2],0.365 h
"CC(C)NCC(O)COc1ccc(CC(N)=O)cc1 (stereo not shown) [Atenolol, reference compound]",recovery at 10 μM,[3]; Test Conc. 10 μM,84.6%
"N#Cc1ccc(-c2cc(=O)c3ccc4[nH]c(C(F)(F)F)nc4c3o2)cc1 [CF3-CN, 4-(6-oxo-2-(trifluoromethyl)-3,6-dihydrochromeno[7,8-d]imidazol-8-yl)benzonitrile]",TrkB activation in the hippocampus,"[4]; oral 3 mg/kg, anti-p-TrkB Y816 immunofluorescence",provoked TrkB activation in the hippocampus
same,total TrkB level in mouse brain,"[4]; oral, 3 months of treatment",not total TrkB level were notably elevated
same,TrkB activation (p-TrkB signals) in mouse brain,"[4]; oral, 3 months of treatment, vs vehicle",markedly activated
same,phosphorylation of TrkB receptors and downstream AKT and ERK/MAPK pathways,"[4]; oral, 3 months, vs vehicle control",more prominently phosphorylated
same,Tau N368 staining,[5]; 5×FAD brain section,repressed
same,APP C585 immuno-signals,"[5]; 5×FAD brain section, immunofluorescent co-staining",strongly inhibited
same,AEP activity (enzymatic assay),"[5]; 5×FAD mice, 3 mg/kg",blocked
same,AEP expression in Hippocampus,"[5]; 5×FAD mice, immunofluorescence",progressively attenuated
same,Mature and active AEP (immunoblotting),[5]; 5×FAD mouse brains,decreased; also recorded: significantly inhibited AEP activation
same,"AEP-cleaved APP N373, N585 and Tau N368 truncates","[5]; 5×FAD mouse brains, western blot",reduction; also recorded: attenuated Tau and APP cleavage
same,LTP (long-term potentiation),"[6]; fEPSPs induced by 3×TBS, vs vehicle",increased LTP; also recorded: reversed the LTP impairment
same,"synaptic markers (synaptotagmin, GluR1, PSD95, spinophilin), immunoblotting",[6]; repeated oral administration,reversed the reduction of synaptic markers
same,synaptic density (electron microscopy),"[6]; repeated oral administration, CA1 area",remarkably reversed the loss of synaptic density in a dose-dependent way
same,density of dendritic spines (Golgi staining),"[6]; repeated oral administration, CA1 region",noticeably rescued; also recorded: prevents or reverses the synaptic loss
same,TrkB activation in primary neurons,[7],dose-dependent effect in triggering TrkB activation
same,"learning impairment, area under curve (AUC) of latency","[8]; Morris water maze, 5 acquisition days",attenuated; also recorded: improves the spatial learning and memory
same,AUC of the swim path distance,"[8]; Morris water maze, no significant statistic differences",reduction trend
same,percentage of time spent in target quadrant,"[8]; probe trial, 60 s",significantly higher percentage of time in the target quadrant
same,Avg % Remaining at Last Point,[9],94.2%
same,half-life,[9],> 8 h
same,Avg % Remaining at Last Point,[10],97.2%
same,half-life,[10],> 8 h
same,hepatocyte CLint,[10],< 2.9 µL/min/1e6 cells
same,EC50,[11],26.7 nM
same,number of plaques and plaque area fraction,"[12]; cortex and hippocampus, vs vehicle control",significantly decreased
same,Aβ42 concentrations (ELISA),[12]; differences not statistically significant,reduction trend
same,Aβ deposition (immunohistochemistry),"[12]; oral, vs vehicle group",significantly lower; also recorded: decreases Aβ plaque deposition
same,microsomal CLint,[13]; [23],< 12.8 µL/min/mg
same,half-life,[13]; [24],> 3 h
same,microsomal CLint,"[13]; NADPH-free CLint, NADPH-free",< 12.8 µL/min/mg
same,half-life,[13]; [25],> 3 h
same,inflammatory factors IL-6,[14],repressed
same,AUC,[15],68500 ng·h/mL
same,stability (comparison),[16],more stable than RM-CN
same,Avg % Remaining at Last Point,[17],107%
same,half-life,[17],> 8 h
same,Avg % Remaining at Last Point,[18],94.8%
same,half-life,[18],> 8 h
same,hepatocyte CLint,[18],< 2.9 µL/min/1e6 cells
same,water solubility (comparison),[19],more water soluble than RM-CN
same,Cmax,"[20]; ICR, iv, 2 mg/kg",12700 ng/mL
same,Tmax,"[20]; ICR, iv, 2 mg/kg",4.8 min
same,"B/P Ratio, individual animal","[20]; ICR, iv, 2 mg/kg, 1 h",0.01
same,"Plasma concentration, Mean","[20]; ICR, iv, 2 mg/kg, 1 h",5288.5 ng/mL
same,"B/P Ratio, individual animal","[20]; ICR, iv, 2 mg/kg, 2 h",0.01
same,"Plasma concentration, Mean","[20]; ICR, iv, 2 mg/kg, 2 h",2154.5 ng/mL
same,"Plasma concentration, Mean","[20]; ICR, iv, 2 mg/kg, 4 h",544.8 ng/mL
same,Kp at 1 h,"[20]; ICR, iv, 2 mg/kg, Mean",0.01
same,Kp at 2 h,"[20]; ICR, iv, 2 mg/kg, Mean",0.01
same,Kp at 4 h,"[20]; ICR, iv, 2 mg/kg, Mean",0.02
same,Kp at 1 h,[20]; [26],0.02
same,Kp at 2 h,[20]; [26],0.01
same,Kp at 4 h,[20]; [26],0.02
same,passage of the blood-brain barrier,[20],can pass the blood-brain barrier
same,Pe,[3]; Test Conc. 10 μM,3.09
same,recovery at 10 μM,[3]; Test Conc. 10 μM,89.9%
same,EC50,"[21]; treated 15 min, immunoblotting, read-out: EC50 of p-TrkB 706 and 816 activation",21.6 nM
same,microsomal CLint,[22]; [23],< 12.8 µL/min/mg
same,half-life,[22]; [27],> 3 h
same,microsomal CLint,"[22]; NADPH-free CLint, NADPH-free",< 12.8 µL/min/mg
same,half-life,[22]; [28],> 3 h
"Cc1ncc2n1-c1ccc(Cl)cc1C(c1ccccc1F)=NC2 [Midazolam, reference compound]",Avg % Remaining at Last Point,[10],9.82%
same,half-life,[10],0.595 h
same,hepatocyte CLint,[10],38.8 µL/min/1e6 cells
same,microsomal CLint,[13]; [23],1100 µL/min/mg
same,half-life,[13]; [24],0.035 h
same,microsomal CLint,"[13]; NADPH-free CLint, NADPH-free",< 12.8 µL/min/mg
same,half-life,[13]; [25],> 3 h
same,Avg % Remaining at Last Point,[18],34.0%
same,half-life,[18],0.657 h
same,hepatocyte CLint,[18],35.1 µL/min/1e6 cells
same,microsomal CLint,[22]; [23],511 µL/min/mg
same,half-life,[22]; [27],0.0753 h
same,microsomal CLint,"[22]; NADPH-free CLint, NADPH-free",< 12.8 µL/min/mg
same,half-life,[22]; [28],> 3 h
"CC(C)[N+](C)(CCOC(=O)C1c2ccccc2Oc2ccccc21)C(C)C [Propantheline, reference compound]",Avg % Remaining at Last Point,[9],3.15%
same,half-life,[9],0.398 h
same,half-life,[17],0.37 h
"Cn1c(=O)[nH]c2ccc3c(=O)cc(-c4ccc(C#N)cc4)oc3c21 [RM-CN, 4-(1-methyl-2,6-dioxo-1,2,3,6-tetrahydrochromeno[7,8-d]imidazol-8-yl)benzonitrile]",TrkB activation in primary neurons,[7],dose-dependent effect in triggering TrkB activation
same,Avg % Remaining at Last Point,[9],91.1%
same,half-life,[9],> 8 h
same,Avg % Remaining at Last Point,[10],54.8%
same,half-life,[10],2.22 h
same,hepatocyte CLint,[10],10.5 µL/min/1e6 cells
same,EC50,[11],12.5 nM
same,microsomal CLint,[13]; [23],231 µL/min/mg
same,half-life,[13]; [24],0.167 h
same,microsomal CLint,"[13]; NADPH-free CLint, NADPH-free",< 12.8 µL/min/mg
same,half-life,[13]; [25],> 3 h
same,Avg % Remaining at Last Point,[17],80.3%
same,half-life,[17],5.75 h
same,Avg % Remaining at Last Point,[18],67.1%
same,half-life,[18],4.58 h
same,hepatocyte CLint,[18],5.04 µL/min/1e6 cells
same,Pe,[3]; Test Conc. 1 μM,2.82
same,recovery at 1 μM,[3]; Test Conc. 1 μM,71%
same,effects on p-TrkB 816,"[21]; different doses, 15 min",behaved inversely
same,p-Akt/p-MAPK downstream signals,"[21]; different doses, 15 min",increased in a dose-dependent manner
same,p-TrkB 706 activation,"[21]; different doses, 15 min",activated p-TrkB 706 gradually
same,microsomal CLint,[22]; [23],30.3 µL/min/mg
same,half-life,[22]; [27],1.27 h
same,microsomal CLint,"[22]; NADPH-free CLint, NADPH-free",< 12.8 µL/min/mg
same,half-life,[22]; [28],> 3 h
"CC(=O)CC(c1ccccc1)c1c(O)c2ccccc2oc1=O (stereo not shown) [Warfarin, reference compound]",Avg % Remaining at Last Point,[9],93.6%
same,Avg % Remaining at Last Point,[17],80.8%
